Measurements taken from US20260125382A1, “COMPOUNDS FOR INHIBITING OR DEGRADING CDK2 AND/OR CDK9 AND MEDICINAL USE THEREOF” (KOREA RESEARCH INSTITUTE OF CHEMICAL TECHNOLOGY, priority 2022, published 2026).

Columns and labels:
CDK2 = molecular target: T1, CDK2 (Homo sapiens, UniProt P24941); assay: CDK protein degradation activity (Western blotting), CDK2; format: cell-based; settings: MDA-MB-231 cells, 16 hours, Western blot
T1 construct: endogenous in cells; host or cells: MDA-MB-231
Method in brief: (§1)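 Breast cancer line MDA-MB-231, 16 h compound treatment (100 nM–10 μM final, three doses). Immunoblot quantification of CDK2/CDK9 versus tubulin, normalized to DMSO control.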

CDK9 = molecular target: T2, CDK9 (Homo sapiens, UniProt P50750); assay: CDK protein degradation activity (Western blotting), CDK9; format: cell-based; settings: MDA-MB-231 cells, 16 hours, Western blot
T2 construct: endogenous in cells; host or cells: MDA-MB-231
Method in brief: as §1

T2 sequence (P50750 whole entry): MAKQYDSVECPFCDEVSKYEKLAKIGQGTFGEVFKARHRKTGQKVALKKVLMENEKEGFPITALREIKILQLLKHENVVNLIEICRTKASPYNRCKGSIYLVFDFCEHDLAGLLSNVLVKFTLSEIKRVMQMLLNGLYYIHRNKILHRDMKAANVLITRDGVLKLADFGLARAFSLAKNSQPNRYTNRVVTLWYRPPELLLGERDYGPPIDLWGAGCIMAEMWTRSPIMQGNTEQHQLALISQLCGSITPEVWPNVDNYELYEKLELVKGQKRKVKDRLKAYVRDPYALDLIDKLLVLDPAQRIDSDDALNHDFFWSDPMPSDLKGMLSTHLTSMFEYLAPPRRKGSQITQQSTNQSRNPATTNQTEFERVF

Structure (SMILES): O=C1CC[C@H](n2nnc3ccc(N4CCC(CN5CCN(c6ccc(Nc7ncnc8c7ncn8[C@H]7C[C@@H](NC(=O)c8cccc(C(F)(F)F)n8)C7)cc6)CC5)CC4)cc3c2=O)C(=O)N1 [Compound 424, N-((1s,3s)-3-(6-((4-(4-((1-(3-(2,6-dioxopiperidin-3-yl)-4-oxo-3,4-dihydrobenzo[d][1,2,3]triazin-6-yl)piperidin-4-yl)methyl)piperazin-1-yl)phenyl)amino)-9H-purin-9-yl)cyclobutyl)-6-(trifluoromethyl)picolinamide]
- Enzyme degradation CDK2 (% remaining) @ 0.1 μM (CDK2): 10/10/10%
- Enzyme degradation CDK2 (% remaining) @ 1 μM (CDK2): 10/10/10%
- Enzyme degradation CDK2 (% remaining) @ 10 μM (CDK2): 10/10/10%
- Enzyme degradation CDK9 (% remaining) @ 0.1 μM (CDK9): 0/0/0%
- Enzyme degradation CDK9 (% remaining) @ 1 μM (CDK9): 0/0/0%
- Enzyme degradation CDK9 (% remaining) @ 10 μM (CDK9): 0/0/0%

Structure (SMILES): O=C1CC[C@H](N2C(=O)c3ccc(OCC(=O)N4CCC5(CC4)CC(N4CCC(c6ccc(Nc7ncnc8c7ncn8[C@H]7C[C@@H](NC(=O)Cc8ccccc8)C7)cc6)CC4)C5)cc3C2=O)C(=O)N1 [Compound 295, N-((1s,3s)-3-(6-((4-(1-(7-(2-((2-(2,6-dioxopiperidin-3-yl)-1,3-dioxoisoindolin-5-yl)oxy)acetyl)-7-azaspiro[3.5]nonan-2-yl)piperidin-4-yl)phenyl)amino)-9H-purin-9-yl)cyclobutyl)-2-phenylacetamide]
- Enzyme degradation CDK2 (% remaining) @ 0.1 μM (CDK2): 20/20/20%
- Enzyme degradation CDK2 (% remaining) @ 1 μM (CDK2): 20/20/20%
- Enzyme degradation CDK2 (% remaining) @ 10 μM (CDK2): 20/20/20%
- Enzyme degradation CDK9 (% remaining) @ 0.1 μM (CDK9): 0/0/0%
- Enzyme degradation CDK9 (% remaining) @ 1 μM (CDK9): 0/0/0%
- Enzyme degradation CDK9 (% remaining) @ 10 μM (CDK9): 0/0/0%

Structure (SMILES): O=C1CC[C@H](N2C(=O)c3ccc(N4CCN(CC=CCN5CCC6(CC5)CC(N5CCN(c7ccc(Nc8ncnc9c8ncn9C8CC(NC(=O)Cc9ccccc9)C8)cc7)CC5)C6)CC4)cc3C2=O)C(=O)N1 (stereo partly drawn) [Compound 479, N-((1s,3s)-3-(6-((4-(4-(7-(4-(4-(2-(2,6-dioxopiperidin-3-yl)-1,3-dioxoisoindolin-5-yl)piperazin-1-yl)but-2-en-1-yl)-7-azaspiro[3.5]nonan-2-yl)piperazin-1-yl)phenyl)amino)-9H-purin-9-yl)cyclobutyl)-2-phenylacetamide]
- Enzyme degradation CDK2 (% remaining) @ 0.1 μM (CDK2): 50%
- Enzyme degradation CDK2 (% remaining) @ 1 μM (CDK2): 60%
- Enzyme degradation CDK2 (% remaining) @ 10 μM (CDK2): 60%
- Enzyme degradation CDK9 (% remaining) @ 0.1 μM (CDK9): 30%
- Enzyme degradation CDK9 (% remaining) @ 1 μM (CDK9): 20%
- Enzyme degradation CDK9 (% remaining) @ 10 μM (CDK9): 20%

Structure (SMILES): O=C1CC[C@H](N2C(=O)c3cccc(CCCN4CCC(CN5CCN(c6ccc(Nc7ncnc8c7ncn8C7CC(NC(=O)c8cccc(F)n8)C7)cc6)CC5)CC4)c3C2=O)C(=O)N1 (stereo partly drawn) [Compound 431, N-((1s,3s)-3-(6-((4-(4-((1-(3-(2-(2,6-dioxopiperidin-3-yl)-1,3-dioxoisoindolin-4-yl)propyl)piperidin-4-yl)methyl)piperazin-1-yl)phenyl)amino)-9H-purin-9-yl)cyclobutyl)-6-fluoropicolinamide]
- Enzyme degradation CDK2 (% remaining) @ 0.1 μM (CDK2): 30/30/30%
- Enzyme degradation CDK2 (% remaining) @ 1 μM (CDK2): 30/30/30%
- Enzyme degradation CDK2 (% remaining) @ 10 μM (CDK2): 30/30/30%
- Enzyme degradation CDK9 (% remaining) @ 0.1 μM (CDK9): 0/0/0%
- Enzyme degradation CDK9 (% remaining) @ 1 μM (CDK9): 0/0/0%
- Enzyme degradation CDK9 (% remaining) @ 10 μM (CDK9): 0/0/0%

Structure (SMILES): O=C1CCC(N2C(=O)c3ccc(N4CCN(CCCN5CCN(c6ccc(Nc7ncnc8c7ncn8[C@H]7C[C@@H](NC(=O)Cc8ccccc8)C7)cc6)CC5)CC4)cc3C2=O)C(=O)N1 (stereo partly drawn) [Compound 239, N-((1s,3s)-3-(6-((4-(4-(3-(4-(2-(2,6-dioxopiperidin-3-yl)-1,3-dioxoisoindolin-5-yl)piperazin-1-yl)propyl)piperazin-1-yl)phenyl)amino)-9H-purin-9-yl)cyclobutyl)-2-phenylacetamide]
- Enzyme degradation CDK2 (% remaining) @ 0.1 μM (CDK2): 100%
- Enzyme degradation CDK2 (% remaining) @ 1 μM (CDK2): 20%
- Enzyme degradation CDK2 (% remaining) @ 10 μM (CDK2): 20%
- Enzyme degradation CDK9 (% remaining) @ 0.1 μM (CDK9): 70%
- Enzyme degradation CDK9 (% remaining) @ 1 μM (CDK9): 0%
- Enzyme degradation CDK9 (% remaining) @ 10 μM (CDK9): 0%

Structure (SMILES): O=C1CC[C@H](N2C(=O)c3ccc(OCC(=O)N4CCC5(CC4)CC(N4CCN(c6ccc(Nc7ncnc8c7ncn8[C@H]7C[C@@H](NC(=O)Cc8ccccc8)C7)cc6)CC4)C5)cc3C2=O)C(=O)N1 [Compound 208, N-((1s,3s)-3-(6-((4-(4-(7-(2-((2-(2,6-dioxopiperidin-3-yl)-1,3-dioxoisoindolin-5-yl)oxy)acetyl)-7-azaspiro[3.5]nonan-2-yl)piperazin-1-yl)phenyl)amino)-9H-purin-9-yl)cyclobutyl)-2-phenylacetamide]
- Enzyme degradation CDK2 (% remaining) @ 0.1 μM (CDK2): 80%
- Enzyme degradation CDK2 (% remaining) @ 1 μM (CDK2): 70%
- Enzyme degradation CDK2 (% remaining) @ 10 μM (CDK2): 70%
- Enzyme degradation CDK9 (% remaining) @ 0.1 μM (CDK9): 10%
- Enzyme degradation CDK9 (% remaining) @ 1 μM (CDK9): 0%
- Enzyme degradation CDK9 (% remaining) @ 10 μM (CDK9): 0%

Structure (SMILES): COc1ccc(C(=O)N2CC(CN3CCC4(CC3)CC(N3CCN(c5ccc(Nc6ncnc7c6ncn7[C@H]6C[C@@H](NC(=O)Cc7ccccc7)C6)cc5)CC3)C4)C2)cc1N1CCC(=O)NC1=O [Compound 280, N-((1s,3s)-3-(6-((4-(4-(7-((1-(3-(2,4-dioxotetrahydropyrimidin-1(2H)-yl)-4-methoxybenzoyl)azetidin-3-yl)methyl)-7-azaspiro[3.5]nonan-2-yl)piperazin-1-yl)phenyl)amino)-9H-purin-9-yl)cyclobutyl)-2-phenylacetamide]
- Enzyme degradation CDK2 (% remaining) @ 0.1 μM (CDK2): 50%
- Enzyme degradation CDK2 (% remaining) @ 1 μM (CDK2): 30%
- Enzyme degradation CDK2 (% remaining) @ 10 μM (CDK2): 30%
- Enzyme degradation CDK9 (% remaining) @ 0.1 μM (CDK9): 50%
- Enzyme degradation CDK9 (% remaining) @ 1 μM (CDK9): 10%
- Enzyme degradation CDK9 (% remaining) @ 10 μM (CDK9): 10%

Structure (SMILES): Cc1cccc(C(=O)NC2CC(n3cnc4c(Nc5ccc(N6CCN(CC7CCN(c8ccc9nnn([C@H]%10CCC(=O)NC%10=O)c(=O)c9c8)CC7)CC6)cc5)ncnc43)C2)n1 (stereo partly drawn) [Compound 378, N-((1s,3s)-3-(6-((4-(4-((1-(3-(2,6-dioxopiperidin-3-yl)-4-oxo-3,4-dihydrobenzo[d][1,2,3]triazin-6-yl)piperidin-4-yl)methyl)piperazin-1-yl)phenyl)amino)-9H-purin-9-yl)cyclobutyl)-6-methylpicolinamide]
- Enzyme degradation CDK2 (% remaining) @ 0.1 μM (CDK2): 10/10/10%
- Enzyme degradation CDK2 (% remaining) @ 1 μM (CDK2): 10/10/10%
- Enzyme degradation CDK2 (% remaining) @ 10 μM (CDK2): 10/10/10%
- Enzyme degradation CDK9 (% remaining) @ 0.1 μM (CDK9): 0/0/0%
- Enzyme degradation CDK9 (% remaining) @ 1 μM (CDK9): 0/0/0%
- Enzyme degradation CDK9 (% remaining) @ 10 μM (CDK9): 0/0/0%

Structure (SMILES): O=C1CC[C@H](N2C(=O)c3cc(F)c(N4CCC(C(=O)N5CCC6(CC5)CC(N5CCN(c7ccc(Nc8ncnc9c8ncn9C8CC(NC(=O)c9c(Cl)cccc9Cl)C8)cc7)CC5)C6)CC4)cc3C2=O)C(=O)N1 (stereo partly drawn) [Compound 464, 2,6-dichloro-N-((1s,3s)-3-(6-((4-(4-(7-(1-(2-(2,6-dioxopiperidin-3-yl)-6-fluoro-1,3-dioxoisoindolin-5-yl)piperidin-4-carbonyl)-7-azaspiro[3.5]nonan-2-yl)piperazin-1-yl)phenyl)amino)-9H-purin-9-yl)cyclobutyl)benzamide]
- Enzyme degradation CDK2 (% remaining) @ 0.1 μM (CDK2): 40%
- Enzyme degradation CDK2 (% remaining) @ 1 μM (CDK2): 30%
- Enzyme degradation CDK2 (% remaining) @ 10 μM (CDK2): 30%
- Enzyme degradation CDK9 (% remaining) @ 0.1 μM (CDK9): 0/0/0%
- Enzyme degradation CDK9 (% remaining) @ 1 μM (CDK9): 0/0/0%
- Enzyme degradation CDK9 (% remaining) @ 10 μM (CDK9): 0/0/0%

Structure (SMILES): Cc1cccc(C(=O)NC2CC(n3cnc4c(NCCCN5CCN(CC6CCN(C(=O)CNc7ccc8c(c7)C(=O)N([C@@H]7CCC(=O)NC7=O)C8=O)CC6)CC5)ncnc43)C2)n1 (stereo partly drawn) [Compound 145, N-((1r,3r)-3-(6-((3-(4-((1-((2-(2,6-dioxopiperidin-3-yl)-1,3-dioxoisoindolin-5-yl)glycyl)piperidin-4-yl)methyl)piperazin-1-yl)propyl)amino)-9H-purin-9-yl)cyclobutyl)-6-methylpicolinamide]
- Enzyme degradation CDK2 (% remaining) @ 0.1 μM (CDK2): 30%
- Enzyme degradation CDK2 (% remaining) @ 1 μM (CDK2): 50%
- Enzyme degradation CDK2 (% remaining) @ 10 μM (CDK2): 50%
- Enzyme degradation CDK9 (% remaining) @ 0.1 μM (CDK9): 0/0/0%
- Enzyme degradation CDK9 (% remaining) @ 1 μM (CDK9): 0/0/0%
- Enzyme degradation CDK9 (% remaining) @ 10 μM (CDK9): 0/0/0%

Structure (SMILES): O=C1CCC(N2C(=O)c3cccc(N4CCC(CN5CCC(CNc6ncnc7c6ncn7[C@H]6C[C@@H](NC(=O)Cc7ccccc7)C6)CC5)CC4)c3C2=O)C(=O)N1 (stereo partly drawn) [Compound 180, N-((1s,3s)-3-(6-(((1-((1-(2-(2,6-dioxopiperidin-3-yl)-1,3-dioxoisoindolin-4-yl)piperidin-4-yl)methyl)piperidin-4-yl)methyl)amino)-9H-purin-9-yl)cyclobutyl)-2-phenylacetamide]
- Enzyme degradation CDK2 (% remaining) @ 0.1 μM (CDK2): 30/30/30%
- Enzyme degradation CDK2 (% remaining) @ 1 μM (CDK2): 30/30/30%
- Enzyme degradation CDK2 (% remaining) @ 10 μM (CDK2): 30/30/30%
- Enzyme degradation CDK9 (% remaining) @ 0.1 μM (CDK9): 20%
- Enzyme degradation CDK9 (% remaining) @ 1 μM (CDK9): 80%
- Enzyme degradation CDK9 (% remaining) @ 10 μM (CDK9): 0%

Structure (SMILES): O=C1CC[C@H](N2C(=O)c3cccc(NC[C@H]4CC[C@H](CN5CCN(c6ccc(Nc7ncnc8c7ncn8[C@H]7C[C@@H](NC(=O)Cc8ccccc8)C7)cc6)CC5)CC4)c3C2=O)C(=O)N1 [Compound 222, N-((1s,3s)-3-(6-((4-(4-(((1r,4r)-4-(((2-(2,6-dioxopiperidin-3-yl)-1,3-dioxoisoindolin-4-yl)amino)methyl)cyclohexyl)methyl)piperazin-1-yl)phenyl)amino)-9H-purin-9-yl)cyclobutyl)-2-phenylacetamide]
- Enzyme degradation CDK2 (% remaining) @ 0.1 μM (CDK2): 100/100/100%
- Enzyme degradation CDK2 (% remaining) @ 1 μM (CDK2): 100/100/100%
- Enzyme degradation CDK2 (% remaining) @ 10 μM (CDK2): 100/100/100%
- Enzyme degradation CDK9 (% remaining) @ 0.1 μM (CDK9): 70%
- Enzyme degradation CDK9 (% remaining) @ 1 μM (CDK9): 70%
- Enzyme degradation CDK9 (% remaining) @ 10 μM (CDK9): 80%
